Here are results for three compounds from patent US20260183306A1, “Methods for Treating Respiratory Diseases Characterized by Mucus Hypersecretion” (The Board of Trustees of the Leland Stanford Junior …, priority 2022, published 2026).

Structures are written as SMILES. Entries after “also recorded” stand apart in the source; their conditions may differ.

For this data set, the system named is primary human nasal epithelial cells (HNECs). Description: Multiciliated cell (MCC) formation in HNEC air-liquid interface (ALI) cultures. Type of data set: cell-based. To be noted: for effect on Notch signaling and differentiation towards MCCs: administered in the nanomolar range to human nasal epithelial cells; for toxicity / disruption of epithelial structure at high concentration: micromolar doses (10 μM for LY450139); for multiciliated cell formation at the low concentration: low dose (based on IC50 for Notch inhibition); for multiciliated cell formation at the low concentration / multiciliated cell formation, treatment during proliferation only: labeled ALI+21d; for multiciliated cell formation by apical versus basal application: ALI+0 to +21d from either the apical or basal surface; for number of multiciliated cells, apical only treatment of submerged cultures: vs untreated submerged cells; for multiciliated cell numbers, treatment during differentiation: differentiation only (ALI+0 to +21d) and continuous (preALI+ALI) treatments; for multiciliated cell formation in mature cultures: mature (ALI+30d) cultures treated one (ALI+30 to +37d) or two weeks (ALI+30 to +44d); for multiciliated cell formation, treatment during proliferation only: pre-ALI only (ALI-5 to -1d); for ratio MCC number/total luminal cells: labeled at ALI+21 d, vs untreated, p<0.01 by ANOVA. How it is done:
Air-Liquid Interface (ALI) cultures were prepared as described in Vladar E K, Nayak J V, Milla C E, Axelrod J D. Airway epithelial homeostasis and planar cell polarity signaling depend on multiciliated cell differentiation. JCI Insight. 2016; 1(13); e88027. Human nasal epithelial cells (HNECs) were generated from human sinonasal epithelial brushings or from tissue obtained from patients undergoing endoscopic sinus surgery at Stanford Hospital and cultured as described in Vladar et al.
Cultures were treated with varying doses of semagacestat. DAFT (Abcam) was used ([…]) as a positive cone ml for GSI activity. Cultures were labeled at ALI+21 d with anti-acetylated α-tubulin (green) and ECAD (red) antibodies to mark cilia and epithelial junctions. […] The ratio was defined as MCC number/total luminal cells. Counting was done on one representative image from 5 culture replicates from a single donor.
Primary human airway epithelial cells were treated with DAPT and LY45139: i) during proliferation only (ALI-5 to -Id), ii) during differentiation only (ALI+0 to +21d) or iii) continuously during the entire culture duration, followed by labeling at ALI+21d with anti-acetylated α-Tubulin (green) and ECAD (red) antibodies.
Mature (ALI+30d) primary human airway epithelial cells were treated with DAFT and semagacestat for one (ALI+30 to +37d) or two weeks (ALI+30 to +44d), then labeled with anti-acetylated α-Tubulin (green) and ECAD (red) antibodies.
Primary human airway epithelial cells were treated with DAFT and LY45139 during differentiation only (ALI+0 to +21d) from either the apical or basal surface, then labeled at ALI+21d with anti-acetylated α-Tubulin (green) and ECAD (red) antibodies. […] Apical treatment eliminates the air-liquid interface, which results in the poor epithelial structure and multiciliated cell differentiation in the untreated cultures, which is partially rescued by GSI treatment.
While this effect may be beneficial as a therapeutic, DAPT is not suitable for human use. It was sought to identify GSIs for potential therapeutic application among small molecules previously used in clinical trials that were developed to have acceptable drug-like properties. […] Healthy human nasal epithelial cell (HNEC) primary cultures were grown at air-liquid interface (ALI) in homemade culture medium to support the consistent differentiation of multiciliated cells as approximately 45-55% of the luminal cells, similar to the in vivo airways (24) (FIG. 35A, 40A). The use of homemade culture medium is important, as cultures grown in commercially available Pneumacult medium often contain 85-95% multiciliated cells at the luminal surface (FIG. S4A). HNECs were treated with a low and high dose (based on IC50 for Notch inhibition, Selleckchem) of each compound during the entire 21 days of ALI differentiation (ALI+0 to 21d). The fraction of mature multiciliated cells was quantitated using wholemount ac. α-Tubulin antibody (marks ciliary axonemes) labeling. […] DMSO control treatment had no effect on multiciliated cell number (FIG. 40A).
HNEC primary culture comprises an initial proliferative phase when basal stem cells establish the epithelial layer under submerged culture conditions (preALI), followed by differentiation induced, in part, by lifting to ALI (30). Thus, HNECs can be used to test GSI response in both regenerative and homeostatic settings. Notch signaling between luminal cells controls epithelial cell fate, but it is also active in basal cells and regulates their differentiation and survival (14,18,31). Thus, it was asked if the GSIs LY450139 or DAFT during the proliferative preALI phase only or during the entire culture duration (proliferative+differentiation; preALI+ALI) can induce multiciliated cell formation and if GSI treatment during stem cell proliferation has detrimental effects. PreALI, GSIs was added to both the apical and basal media, and during ALI, cultures were only treated basally. […]

The mark [1] stands for this setting: ALI+0 to +21d, listed as LY45139.
Where [2] appears, read: ALI+0 to +21d, listed as LY450139.
[3] abbreviates: treated during differentiation ALI+0 to +21d.

Take `O=C(O)CC[C@H]1CC[C@@](c2cc(F)ccc2F)(S(=O)(=O)c2ccc(Cl)cc2)CC1` [MK-0752]: the “effect on Notch signaling and differentiation towards MCCs” value is reported as “effective in blocking Notch signaling, driving differentiation towards MCCs”. For the same compound, for the setting “ALI+0 to +21d”, the “toxicity / disruption of epithelial structure at high concentration” value (shortened to “toxicity / disruption”) is “disrupted epithelial structure” and the “multiciliated cell formation at the low concentration” value is on record as “induced multiciliated cell formation; also recorded: able to induce the formation of extra multiciliated cells”.
With `CC(C)[C@H](O)C(=O)N[C@@H](C)C(=O)N[C@@H]1C(=O)N(C)CCc2ccccc21` [semagacestat, (2S)-2-hydroxy-3-methyl-N-[(1 S)-1-methyl-2-oxo-2-[[(1 S)-2,3,4,5-tetrahydro-3-methyl-2-oxo-1H-3-benzazepin-1-yl]amino]ethyl]-butamide], the “effect on Notch signaling and differentiation towards MCCs” value is recorded as “effective in blocking Notch signaling, driving differentiation towards MCCs”; the “number of multiciliated cells, apical only treatment of submerged cultures” value is “approximately double the number of multiciliated cells”; the “multiciliated cell formation in mature cultures” value is “induces the formation of additional multiciliated cells in mature cultures”. The “proportion of multiciliated cells” value (10 μM, ALI+0 to +21d) is on record as “significant decrease”. For the setting “15.625 to 500 nM, ALI+0 to +21d”, the “proportion of multiciliated cells” value is “significant increase”. Besides, for the setting “listed as LY45139”, the “multiciliated cell formation by apical versus basal application” value was “induces ciliated cell formation via both apical and basal application”; the “multiciliated cell numbers, treatment during differentiation” value is “increased MCC cell numbers”; the “multiciliated cell formation, treatment during proliferation only” value is given as “had no effect on differentiation”. Under “listed as LY450139”, the “multiciliated cell formation by apical versus basal application” value is “just as efficacious as basal treatment; also recorded: induces multiciliated cell formation via both apical and basal application”; the “multiciliated cell numbers, treatment during differentiation” value was “significant increase in the proportion of multiciliated cells; also recorded: increased multiciliated cell numbers”; the “multiciliated cell formation in mature cultures” value is “robust induction of multiciliated cell formation; also recorded: able to drive multiciliated cell formation in differentiating as well as mature, homeostatic airway epithelial cultures; also recorded: induces the formation of additional multiciliated cells in mature cultures”; the “multiciliated cell formation, treatment during proliferation only” value is on record as “not sufficient to induce extra multiciliated cell formation; also recorded: no observable effect on subsequent differentiation; also recorded: no detrimental effect on multiciliated cells or overall epithelial structure”. For the same compound, the “toxicity / disruption” value (ALI+0 to +21d) was “Toxicity is observed at micromolar doses”. For the same compound, under setting [1], the “toxicity / disruption” value is “disrupted epithelial structure” and the “multiciliated cell formation at the low concentration” value is “induced multiciliated cell formation”. Under setting [2], the “toxicity / disruption” value is on record as “disrupted the epithelial junctions; also recorded: disrupted epithelial structure” and the “multiciliated cell formation at the low concentration” value is “able to induce the formation of extra multiciliated cells; also recorded: induced multiciliated cell formation”. Where the note is “lower (nM) concentrations, ALI+0 to +21d, listed as LY450139”, the “dose dependence of multiciliated cell numbers” value is recorded as “increases the proportion of multiciliated cells in a dose dependent manner; also recorded: dose dependent increase in multiciliated cell numbers”. For the same compound, where the note is “semagacestat 500 nM to 31.25 nM”, the “ratio MCC number/total luminal cells” value is “significant increases”. Further, under setting [3], the “concentration at which the percentage of MCCs reaches its maximum / begins to plateau” value is given as “around 125 nM” and the “lowest concentration able to effectively increase the proportion of multiciliated cells” value was determined as 31.25 nM.
With `C[C@H](NC(=O)Cc1cc(F)cc(F)c1)C(=O)NC(C(=O)OC(C)(C)C)c1ccccc1` (stereo partly drawn) [DAPT], the “number of multiciliated cells, apical only treatment of submerged cultures” value is “approximately double the number of multiciliated cells”; the “multiciliated cell numbers, treatment during differentiation” value was “increased MCC cell numbers; also recorded: increased multiciliated cell numbers”; the “multiciliated cell formation in mature cultures” value is given as “induces the formation of additional multiciliated cells in mature cultures”; the “multiciliated cell formation, treatment during proliferation only” value was “had no effect on differentiation; also recorded: no detrimental effect on multiciliated cells or overall epithelial structure”. Moreover, where the note is “listed as DAFT”, the “multiciliated cell formation by apical versus basal application” value is “induces ciliated cell formation via both apical and basal application; also recorded: induces multiciliated cell formation via both apical and basal application”; the “multiciliated cell numbers, treatment during differentiation” value was “significant increase in the proportion of multiciliated cells”; the “multiciliated cell formation in mature cultures” value was “induces the formation of additional multiciliated cells in mature cultures; also recorded: robust induction of multiciliated cell formation”; the “multiciliated cell formation, treatment during proliferation only” value is reported as “not sufficient to induce extra multiciliated cell formation”. Moreover, the “ratio MCC number/total luminal cells” value (I μM DAPT) is listed as “significant increases”.
